Where two headings read alike, the source gives them in different places.

Broadly, the IC50 is the concentration that inhibits the measured activity by half.

The subject of the assay is Myc. The experiment in a line: Myc inhibition assay: Myc expression per cell by anti-Myc immunofluorescence, high-content imaging. The following applies: medulloblastoma PDX cells, 4 h. Type of assay: cell-based, human (patient-derived medulloblastoma xenograft cells). The essentials: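 IC50 comes from high-content imaging of per-cell Myc immunostaining (DAPI-labelled nuclei) after 4 h compound exposure. Cells were freshly dissociated medulloblastoma PDX tumours, never passaged in vitro, grown in NSG mouse cerebellum, plated serum-free and recovered overnight before treatment.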

[1] abbreviates: Table 1, read-out: IC50 (Myc inhibition).
[2] abbreviates: Table 2, read-out: MYC Inhibition IC50.

For the molecule `Oc1cc(-c2ccnc(Nc3cccc(F)c3F)n2)ccn1` [Compound 205, 4-(2-((2,3-difluorophenyl)amino)pyrimidin-4-yl)pyridin-2-ol], the IC50 is, setting by setting: under setting [1], 1 to 10 µM; under setting [2], 1 to 10 µM.

On to `COc1cc(-c2ccnc(Nc3cccc(F)c3F)n2)ccn1` [Compound 206, N-(2,3-difluorophenyl)-4-(2-methoxypyridin-4-yl)pyrimidin-2-amine], for which the IC50 was in the range of 10 to 100 µM under setting [1] and 10 to 100 µM under setting [2].

For the molecule `Oc1cc(-c2ccnc(Nc3ccccc3F)n2)ccn1` [Compound 207, 4-(2-((2-fluorophenyl)amino)pyrimidin-4-yl)pyridin-2-ol], the IC50 under setting [1] was 10 to 100 µM and the concentration for half-maximal inhibition (IC50) under setting [2] was in the range of 10 to 100 µM.

As for `COc1cc(-c2ccnc(Nc3ccccc3F)n2)ccn1` [Compound 208, N-(2-fluorophenyl)-4-(2-methoxypyridin-4-yl)pyrimidin-2-amine], the IC50 is, setting by setting: under setting [1], 10 to 100 µM; under setting [2], 10 to 100 µM.

As for `Oc1cc(-c2ccnc(Nc3ccc(F)c(F)c3)n2)ccn1` [Compound 209, 4-(2-((3,4-difluorophenyl)amino)pyrimidin-4-yl)pyridin-2-ol], the IC50 runs as follows: under setting [1], 1 to 10 µM; under setting [2], 1 to 10 µM.

As for `COc1cc(-c2ccnc(Nc3ccc(F)c(F)c3)n2)ccn1` [Compound 210, N-(3,4-difluorophenyl)-4-(2-methoxypyridin-4-yl)pyrimidin-2-amine], the IC50 reads like this: under setting [1], 1 to 10 µM; under setting [2], 1 to 10 µM.

Turning to `Oc1ccc(-c2ccnc(Nc3cccc(C(F)(F)F)c3)n2)cn1` [Compound 211, 5-(2-((3-(trifluoromethyl)phenyl)amino)pyrimidin-4-yl)pyridin-2-ol], the IC50 by setting is: under setting [1], 0.2 to 1 µM; under setting [2], 0.2 to 1 µM.

On to `COc1ccc(-c2ccnc(Nc3cccc(C(F)(F)F)c3)n2)cn1` [Compound 212, 4-(6-methoxypyridin-3-yl)-N-(3-(trifluoromethyl)phenyl)pyrimidin-2-amine], for which the IC50 under setting [1] fell in the range of 1 to 10 µM and the IC50 under setting [2] lay within 1 to 10 µM.

With `Oc1ccc(-c2ccnc(Nc3cccc(F)c3)n2)cn1` [Compound 213, 5-(2-((3-fluorophenyl)amino)pyrimidin-4-yl)pyridin-2-ol], the IC50 fell in the range of 1 to 10 µM under setting [1] and 1 to 10 µM under setting [2].

With `COc1ccc(-c2ccnc(Nc3cccc(F)c3)n2)cn1` [Compound 214, N-(3-fluorophenyl)-4-(6-methoxypyridin-3-yl)pyrimidin-2-amine], the IC50 by setting is: under setting [1], 10 to 100 µM; under setting [2], 10 to 100 µM.

As to `CN(c1ccccc1)c1ncnc(-c2ccnc(O)c2)n1` [Compound 215, 4-(4-(methyl(phenyl)amino)-1,3,5-triazin-2-yl)pyridin-2-ol], the IC50 is, setting by setting: under setting [1], 10 to 100 µM; under setting [2], 10 to 100 µM.

Turning to `COc1cc(-c2ncnc(N(C)c3ccccc3)n2)ccn1` [Compound 216, 4-(2-methoxypyridin-4-yl)-N-methyl-N-phenyl-1,3,5-triazin-2-amine], the IC50 is, setting by setting: under setting [1], 10 to 100 µM; under setting [2], 10 to 100 µM.

As to `COc1ccnc(-c2ccnc(Nc3ccccc3)n2)c1` [Compound 217, 4-(4-methoxypyridin-2-yl)-N-phenylpyrimidin-2-amine], the IC50 reads like this: under setting [1], 10 to 100 µM; under setting [2], 10 to 100 µM.

As to `CN(c1ccccc1)c1nccc(-c2cncc(O)c2)n1` [Compound 218, 5-(2-(methyl(phenyl)amino)pyrimidin-4-yl)pyridin-3-ol], the IC50 reads like this: under setting [1], 10 to 100 µM; under setting [2], 10 to 100 µM.

`Oc1cncc(-c2ccnc(Nc3ccccc3)n2)c1` [Compound 219, 5-(2-(phenylamino)pyrimidin-4-yl)pyridin-3-ol]: the IC50 runs as follows: under setting [1], 1 to 10 µM; under setting [2], 1 to 10 µM.

With `CN(c1cccc(C(F)(F)F)c1)c1nccc(-c2ccnc(O)c2)n1` [Compound 220, 4-(2-(methyl (3-(trifluoromethyl)phenyl)amino)pyrimidin-4-yl)pyridin-2-ol], the IC50 under setting [1] fell in the range of 10 to 100 µM and the IC50 under setting [2] fell in the range of 10 to 100 µM.

Regarding `CN(c1ccccc1)c1nccc(-c2ccnc(O)c2)n1` [Compound 221, 4-(2-(methyl(phenyl)amino)pyrimidin-4-yl)pyridin-2-ol], the IC50 under setting [1] fell in the range of 10 to 100 µM and the IC50 under setting [2] lay within 10 to 100 µM.

In the case of `CN(c1ccccc1)c1nccc(-c2ccc(O)nc2)n1` [Compound 222, 5-(2-(methyl(phenyl)amino)pyrimidin-4-yl)pyridin-2-ol], the IC50 is, setting by setting: under setting [1], 10 to 100 µM; under setting [2], 10 to 100 µM.

For `COc1ccc(-c2ccnc(N(C)c3ccccc3)n2)cn1` [Compound 223, 4-(6-methoxypyridin-3-yl)-N-methyl-N-phenylpyrimidin-2-amine], the IC50 is, setting by setting: under setting [1], 10 to 100 µM; under setting [2], 10 to 100 µM.

Consider `COc1cncc(-c2ccnc(N(C)c3ccccc3)n2)c1` [Compound 224, 4-(5-methoxypyridin-3-yl)-N-methyl-N-phenylpyrimidin-2-amine], for which the IC50 runs as follows: under setting [1], 10 to 100 µM; under setting [2], 10 to 100 µM.

With `CN(c1ccccc1)c1nccc(-c2cccc(O)n2)n1` [Compound 225, 6-(2-(methyl(phenyl)amino)pyrimidin-4-yl)pyridin-2-ol], the IC50 under setting [1] fell in the range of 10 to 100 µM and the IC50 under setting [2] was 10 to 100 µM.

In the case of `Oc1cccc(-c2ccnc(Nc3ccccc3)n2)n1` [Compound 226, 6-(2-(phenylamino)pyrimidin-4-yl)pyridin-2-ol], the IC50 under setting [1] was in the range of 10 to 100 µM and the IC50 under setting [2] lay within 10 to 100 µM.

On to `COc1cccc(-c2ccnc(N(C)c3ccccc3)n2)n1` [Compound 227, 4-(6-methoxypyridin-2-yl)-N-methyl-N-phenylpyrimidin-2-amine], for which the IC50 by setting is: under setting [1], 10 to 100 µM; under setting [2], 10 to 100 µM.

For the molecule `COc1cncc(-c2ccnc(Nc3ccccc3)n2)c1` [Compound 228, 4-(5-methoxypyridin-3-yl)-N-phenylpyrimidin-2-amine], the IC50 was 1 to 10 µM under setting [1] and 1 to 10 µM under setting [2].

For the molecule `Oc1cc(-c2ccnc(Cc3ccccc3)n2)ccn1` [Compound 229, 4-(2-Benzylpyrimidin-4-yl)pyridin-2-ol], the IC50 runs as follows: under setting [1], 10 to 100 µM; under setting [2], 10 to 100 µM.

As for `COc1cc(-c2ccnc(Cc3ccccc3)n2)ccn1` [Compound 230, 2-Benzyl-4-(2-methoxypyridin-4-yl)pyrimidine], the IC50 under setting [1] lay within 10 to 100 µM and the IC50 under setting [2] lay in the range of 10 to 100 µM.

As to `Oc1cc(-c2ccnc(Sc3ccccc3)n2)ccn1` [Compound 231, 4-(2-(phenylthio)pyrimidin-4-yl)pyridin-2-ol], the IC50 by setting is: under setting [1], 10 to 100 µM; under setting [2], 10 to 100 µM.

Consider `Oc1cc(-c2ccnc(Oc3ccccc3)n2)ccn1` [Compound 232, 4-(2-phenoxypyrimidin-4-yl)pyridin-2-ol], for which the IC50 reads like this: under setting [1], 10 to 100 µM; under setting [2], 10 to 100 µM.

For the molecule `Oc1cc(-c2ncnc(Nc3ccccc3)n2)ccn1` [Compound 233, 4-(4-(phenylamino)-1,3,5-triazin-2-yl)pyridin-2-ol], the IC50 is, setting by setting: under setting [1], 1 to 10 µM; under setting [2], 1 to 10 µM.

As to `COc1cc(-c2ccnc(Sc3ccccc3)n2)ccn1` [Compound 234, 4-(2-methoxypyridin-4-yl)-2-(phenylthio)pyrimidine], the IC50 reads like this: under setting [1], 0.2 to 1 µM; under setting [2], 0.2 to 1 µM.

In the case of `COc1cc(-c2ccnc(Oc3ccccc3)n2)ccn1` [Compound 235, 4-(2-methoxypyridin-4-yl)-2-phenoxypyrimidine], the IC50 by setting is: under setting [1], 10 to 100 µM; under setting [2], 10 to 100 µM.

As for `COc1cccc(-c2ccnc(Nc3ccccc3)n2)n1` [Compound 236, 4-(6-methoxypyridin-2-yl)-N-phenylpyrimidin-2-amine], the IC50 fell in the range of 10 to 100 µM under setting [1] and 10 to 100 µM under setting [2].

As to `CN(c1cccc(F)c1)c1nccc(-c2ccnc(O)c2)n1` [Compound 237, 4-(2-((3-fluorophenyl)(methyl)amino)pyrimidin-4-yl)pyridin-2-ol], the IC50 lay in the range of 10 to 100 µM under setting [1] and 10 to 100 µM under setting [2].

In the case of `Oc1ccc(-c2ccnc(Nc3ccccc3)n2)cn1` [Compound 238, 5-(2-(phenylamino)pyrimidin-4-yl)pyridin-2-ol], the IC50 was 1 to 10 µM under setting [1] and 1 to 10 µM under setting [2].

In the case of `COc1ccc(-c2ccnc(Nc3ccccc3)n2)cn1` [Compound 239, 4-(6-methoxypyridin-3-yl)-N-phenylpyrimidin-2-amine], the IC50 is, setting by setting: under setting [1], 10 to 100 µM; under setting [2], 10 to 100 µM.

For `COc1cc(-c2ncnc(Nc3ccccc3)n2)ccn1` [Compound 240, 4-(2-methoxypyridin-4-yl)-N-phenyl-1,3,5-triazin-2-amine], the IC50 is, setting by setting: under setting [1], 1 to 10 µM; under setting [2], 1 to 10 µM.

For the molecule `Oc1cc(-c2ccnc(Nc3cccc(C(F)(F)F)c3)n2)ccn1` [Compound 241, 4-(2-((3-(trifluoromethyl)phenyl)amino)pyrimidin-4-yl)pyridin-2-ol], the half-maximal inhibitory concentration (IC50) runs as follows: under setting [1], 0.2 to 1 µM; under setting [2], 0.2 to 1 µM.

Regarding `Oc1cc(-c2ccnc(Nc3cccc(F)c3)n2)ccn1` [Compound 242, 4-(2-((3-fluorophenyl)amino)pyrimidin-4-yl)pyridin-2-ol], the IC50 under setting [1] lay in the range of 0.2 to 1 µM and the IC50 under setting [2] lay within 0.2 to 1 µM.

On to `COc1cc(-c2ccnc(Nc3cccc(F)c3)n2)ccn1` [Compound 243, N-(3-fluorophenyl)-4-(2-methoxypyridin-4-yl)pyrimidin-2-amine], for which the IC50 was in the range of 1 to 10 µM under setting [1] and 1 to 10 µM under setting [2].

As for `Oc1cccc(-c2ccnc(Nc3ccccc3)n2)c1` [Compound 244, 3-(2-(phenylamino)pyrimidin-4-yl)phenol], the IC50 by setting is: under setting [1], 1 to 10 µM; under setting [2], 1 to 10 µM.

`COc1cccc(-c2cccc(Nc3ccccc3)n2)c1` [Compound 245, 6-(3-Methoxyphenyl)-N-phenylpyridin-2-amine]: the IC50 runs as follows: under setting [1], 10 to 100 µM; under setting [2], 10 to 100 µM.

Turning to `COc1cccc(-c2ccnc(Nc3ccccc3)c2)c1` [Compound 246, 4-(3-Methoxyphenyl)-N-phenylpyridin-2-amine], the IC50 under setting [1] was 10 to 100 µM and the IC50 under setting [2] fell in the range of 10 to 100 µM.

Values taken from patent US20260356817A1, “AMINOPYRIMIDINE AND AMINOTRIAZINE DERIVATIVES AS MYC PROTEIN MODULATORS” (Sanford Burnham Prebys Medical Discovery Institute, priority 2022, published 2026).
